Each molecule was assayed against catalytic domain of human Bub1 (amino acids 704-1085) (Homo sapiens (Human), UniProt O43683) (assay: Bub1 kinase assay (TR-FRET)). Conditions: 10 μM ATP, 1 μM peptide substrate, recombinant catalytic domain of human Bub1, read-out: Bub1 kinase assay median IC50.
Assay type: biochemical
Source text: Bub1-inhibitory activities of compounds described in the present invention were quantified using a time-resolved fluorescence energy transfer (TR-FRET) kinase assay which measures phosphorylation of the synthetic peptide Biotin-Ahx-VLLPKKSFAEPG (C-terminus in amide form), purchased from e.g. Biosyntan (Berlin, Germany) by the (recombinant) catalytic domain of human Bub1 (amino acids 704-1085), expressed in Hi5 insect cells with an N-terminal His6-tag and purified by affinity- (Ni-NTA) and size exclusion chromatography.
In a typical assay 11 different concentrations of each compound (0.1 nM, 0.33 nM, 1.1 nM, 3.8 nM, 13 nM, 44 nM, 0.15 μM, 0.51 μM, 1.7 μM, 5.9 μM and 20 μM) were tested in duplicate within the same microtiter plate. To this end, 100-fold concentrated compound solutions (in DMSO) were previously prepared by serial dilution (1:3.4) of 2 mM stocks in a clear low volume 384-well source microtiter plate (Greiner Bio-One, Frickenhausen, Germany), from which 50 nl of compounds were transferred into a black low volume test microtiter plate from the same supplier. Subsequently, 2 μl of Bub1 (the final concentration of Bub1 was adjusted depending on the activity of the enzyme lot in order to be within the linear dynamic range of the assay: typically ˜200 ng/ml were used) in aqueous assay buffer [50 mM Tris/HCl pH 7.5, 10 mM magnesium chloride (MgCl2), 200 mM potassium chloride (KCl), 1.0 mM dithiothreitol (DTT), 0.1 mM sodium ortho-vanadate, 1% (v/v) glycerol, 0.01% (w/v) bovine serum albumine (BSA), 0.005% (v/v) Trition X-100 (Sigma), 1× Complete EDTA-free protease inhibitor mixture (Roche)] were added to the compounds in the test plate and the mixture was incubated for 15 min at 22° C. to allow pre-equilibration of the putative enzyme-inhibitor complexes before the start of the kinase reaction, which was initiated by the addition of 3 μl 1.67-fold concentrated solution (in assay buffer) of adenosine-tri-phosphate (ATP, 10 μM final concentration) and peptide substrate (1 μM final concentration). The resulting mixture (5 μl final volume) was incubated at 22° C. during 60 min., and the reaction was stopped by the addition of 5 μl of an aqueous EDTA-solution (50 mM EDTA, in 100 mM HEPES pH 7.5 and 0.2% (w/v) bovine serum albumin) which also contained the TR-FRET detection reagents (0.2 μM streptavidin-XL665 [Cisbio Bioassays, Codolet, France] and 1 nM anti-phosho-Serine antibody [Merck Millipore, cat. #35-002] and 0.4 nM LANCE EU-W1024 labeled anti-mouse IgG antibody [Perkin-Elmer, product no. AD0077, alternatively a Terbium-cryptate-labeled anti-mouse IgG antibody from Cisbio Bioassays can be used]). The stopped reaction mixture was further incubated 1 h at 22° C. in order to allow the formation of complexes between peptides and detection reagents. Subsequently, the amount of product was evaluated by measurement of the resonance energy transfer from the Eu-chelate-antibody complex recognizing the Phosphoserine residue to the streptavidin-XL665 bound to the biotin moiety of the peptide. To this end, the fluorescence emissions at 620 nm and 665 nm after excitation at 330-350 nm were measured in a TR-FRET plate reader, e.g. a Rubystar or Pherastar (both from BMG Labtechnologies, Offenburg, Germany) or a Viewlux (Perkin-Elmer) and the ratio of the emissions (665 nm/622 nm) was taken as indicator for the amount of phosphorylated substrate. The data were normalised using two sets of control wells for high- (=enzyme reaction without inhibitor=0%=Minimum inhibition) and low- (=all assay components without enzyme=100%=Maximum inhibition) Bub1 activity. IC50 values were calculated by fitting the normalized inhibition data to a 4-parameter logistic equation (Minimum, Maximum, IC50, Hill; Y=Max+(Min−Max)/(1+(X/IC50)Hill)).

Sequence of catalytic domain of human Bub1 (amino acids 704-1085) (O43683 704-1085): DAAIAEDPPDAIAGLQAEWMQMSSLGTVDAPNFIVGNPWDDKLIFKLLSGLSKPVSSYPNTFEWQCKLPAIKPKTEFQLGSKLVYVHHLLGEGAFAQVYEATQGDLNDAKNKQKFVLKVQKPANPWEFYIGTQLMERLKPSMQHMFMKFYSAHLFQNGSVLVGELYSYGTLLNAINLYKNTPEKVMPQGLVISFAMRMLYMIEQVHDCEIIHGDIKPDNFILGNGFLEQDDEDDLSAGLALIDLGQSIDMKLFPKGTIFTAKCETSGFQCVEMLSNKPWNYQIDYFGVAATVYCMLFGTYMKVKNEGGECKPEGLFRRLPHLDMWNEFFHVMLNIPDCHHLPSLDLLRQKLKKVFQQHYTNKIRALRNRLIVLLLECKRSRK

| Compound | IC50 [nM] |
| --- | --- |
| O=C1NCCc2[nH]c(-c3ccncc3OCC(F)F)c(Nc3ccc(F)cc3)c21 [Example 42, 2-[3-(2,2-difluoroethoxy)pyridin-4-yl]-3-[(4-fluorophenyl)amino]-1,5,6,7-tetrahydro-4H-pyrrolo[3,2-c]pyridin-4-one] | 111 |
| O=c1[nH]ccc2[nH]c(-c3ccncc3F)c(Nc3ccccc3)c12 [Example 16, 2-(3-fluoropyridin-4-yl)-3-(phenylamino)-1,5-dihydro-4H-pyrrolo[3,2-c]pyridin-4-one] | 19.1 |
| CCn1c2c(c(Nc3ccccc3)c1-c1ccnc(C)c1)C(=O)NCC2 [Example 13, 1-ethyl-2-(2-methylpyridin-4-yl)-3-(phenylamino)-1,5,6,7-tetrahydro-4H-pyrrolo[3,2-c]pyridin-4-one] | 972 |
| CCn1c2c(c(Nc3ccccc3)c1-c1ccnc(NC(C)=O)c1)C(=O)NCC2 [Example 15, N-{4-[1-ethyl-4-oxo-3-(phenylamino)-4,5,6,7-tetrahydro-1H-pyrrolo[3,2-c]pyridin-2-yl]pyridin-2-yl}acetamide] | 79 |
| CCn1c2c(c(Nc3ccc(F)cc3)c1-c1ccncc1)C(=O)NCC2 [Example 11, 1-ethyl-3-[(4-fluorophenyl)amino]-2-(pyridin-4-yl)-1,5,6,7-tetrahydro-4H-pyrrolo[3,2-c]pyridin-4-one] | 64.5 |
| COCCOc1cnccc1-c1[nH]c2c(c1Nc1ccc(F)c(F)c1)C(=O)NCC2 [Example 45, 3-[(3,4-difluorophenyl)amino]-2-[3-(2-methoxyethoxy)pyridin-4-yl]-1,5,6,7-tetrahydro-4H-pyrrolo[3,2-c]pyridin-4-one] | 28 |
| O=C1NCCc2[nH]c(-c3ccncc3)c(Nc3ccc(F)cc3)c21 [Example 7, 3-[(4-fluorophenyl)amino]-2-(pyridin-4-yl)-1,5,6,7-tetrahydro-4H-pyrrolo[3,2-c]pyridin-4-one] | 19.8 |
| O=C1NCCc2[nH]c(-c3ccncc3OCC(F)F)c(Nc3ccc(F)c(F)c3)c21 [Example 43, 2-[3-(2,2-difluoroethoxy)pyridin-4-yl]-3-[(3,4-difluorophenyl)amino]-1,5,6,7-tetrahydro-4H-pyrrolo[3,2-c]pyridin-4-one] | 136 |
| CN1CCc2[nH]c(-c3ccncc3OCCC(C)(C)C)c(Nc3ccccc3)c2C1=O [Example 35, 2-[3-(3,3-dimethylbutoxy)pyridin-4-yl]-5-methyl-3-(phenylamino)-1,5,6,7-tetrahydro-4H-pyrrolo[3,2-c]pyridin-4-one] | 85.9 |
| COCCOc1cnccc1-c1[nH]c2c(c1Nc1cccc(F)c1)C(=O)NCC2 [Example 47, 3-[(3-fluorophenyl)amino]-2-[3-(2-methoxyethoxy)pyridin-4-yl]-1,5,6,7-tetrahydro-4H-pyrrolo[3,2-c]pyridin-4-one] | 19.4 |

Results, then the molecule that gave them:

| IC50 [nM] | Compound |
| --- | --- |
| 21.7 | CN1CCc2[nH]c(-c3ccncc3OCC3CC3)c(Nc3ccccc3)c2C1=O [Example 27, 2-[3-(cyclopropylmethoxy)pyridin-4-yl]-5-methyl-3-(phenylamino)-1,5,6,7-tetrahydro-4H-pyrrolo[3,2-c]pyridin-4-one] |
| 10.9 | CC(C)(C)OC(=O)N1CCc2[nH]c(-c3ccncc3)c(Nc3ccccc3)c2C1=O [Example 6, tert-butyl 4-oxo-3-(phenylamino)-2-(pyridin-4-yl)-1,4,6,7-tetrahydro-5H-pyrrolo[3,2-c]pyridine-5-carboxylate] |
| 23.2 | CC(=O)Nc1cc(-c2[nH]c3c(c2Nc2ccccc2)C(=O)N(C)CC3)ccn1 [Example 23] |
| 28.1 | CN1CCc2[nH]c(-c3ccnc(NC(=O)[C@@H]4C[C@@H]4F)c3)c(Nc3ccccc3)c2C1=O [Example 40, (1S,2S)-2-fluoro-N-{4-[5-methyl-4-oxo-3-(phenylamino)-4,5,6,7-tetrahydro-1H-pyrrolo[3,2-c]pyridin-2-yl]pyridin-2-yl}cyclopropanecarboxamide] |
| 354 | COCCn1c2c(c(Nc3ccccc3)c1-c1ccncc1)C(=O)NCC2 [Example 9, 1-(2-methoxyethyl)-3-(phenylamino)-2-(pyridin-4-yl)-1,5,6,7-tetrahydro-4H-pyrrolo[3,2-c]pyridin-4-one] |
| 15.3 | CN1CCc2[nH]c(-c3ccnc(NC(=O)C4CC4)c3)c(Nc3ccccc3)c2C1=O [Example 24] |
| 13.4 | CN1CCc2[nH]c(-c3ccncc3)c(Nc3ccccc3)c2C1=O [Example 20, 5-methyl-3-(phenylamino)-2-(pyridin-4-yl)-1,5,6,7-tetrahydro-4H-pyrrolo[3,2-c]pyridin-4-one] |
| 18.3 | CC(=O)Nc1cc(-c2[nH]c3c(c2Nc2ccccc2)C(=O)NCC3)ccn1 [Example 14] |
| 11.6 | CC1(C)Cc2[nH]c(-c3ccncc3)c(Nc3ccccc3)c2C(=O)N1 [Example 1, 6,6-dimethyl-3-(phenylamino)-2-(pyridin-4-yl)-1,5,6,7-tetrahydro-4H-pyrrolo[3,2-c]pyridin-4-one] |
| 8.7 | CN1CCc2[nH]c(-c3ccncc3F)c(Nc3ccccc3)c2C1=O [Example 17, 2-(3-fluoropyridin-4-yl)-5-methyl-3-(phenylamino)-1,5,6,7-tetrahydro-4H-pyrrolo[3,2-c]pyridin-4-one] |

Reference: patent US10428063B2 (Bayer Pharma Aktiengesellschaft, priority 2015, dated 2019)
